According to patent EP4752142A1, “5-HT2A RECEPTOR AGONIST, AND PREPARATION METHOD THEREFOR AND USE THEREOF” (Innovstone Therapeutics Limited, priority 2023, dated 2025):
pKi: −log10 of the molar value.

Target: 5-HT2A receptor (Homo sapiens, UniProt P28223)
Test: 5-HT2A receptor isotope competition affinity assay
Type: binding
Settings: competition with [3H]-Ketanserin, 1 hour, room temperature; read-out: 5-HT2A receptor/Ki
Experimental: A radiolabeled ligand (agonist or antagonist) incubated with receptor protein could form a receptor-ligand complex. An added test compound could compete with the isotopically labeled ligand for the receptor binding, eventually forming a relative steady-state equilibrium. The affinity of the test compound for the receptor was indirectly evaluated by measuring the dissociation of the isotopically labeled ligand from the receptor.
A 100x serial gradient dilution of compounds was prepared in DMSO, starting from 1 mM with 4-fold serial dilutions, resulting in 10 concentration points. Using a pipettor, 1 µL of each gradient concentration of the test compound (final concentration starting at 10 µM, 4-fold serial dilutions, 10 concentration points) was transferred to a 96-well assay plate, to each well of which 49 µL of 5-HT2A receptor protein (102 µg/mL, prepared in an assay buffer: 50 mM Tris-HCl, pH 7.4) had been added in advance (final concentration 5 µg/well). This was followed by the addition of 50 µL of isotopically labeled [^3H]-Ketanserin (2 nM, 2× final concentration, prepared in the assay buffer). The plate was sealed and incubated on a shaker at room temperature for 1 hour. The reaction mixture was filtered through a Unifilter-96 GF/C filter plate pre-treated with 0.3% PEI. The filter plate was washed with a precooled (4°C) assay buffer and then dried in an incubator at 50°C. A scintillation liquid was added, and the plate was read using a MicroBeta2 instrument. The percentage inhibition was calculated using the equation: %Inhibition=(CountHigh Signal Control-CountSample)/(CountHigh Signal Control-CountLow Signal Control)*100. A four-parameter logistic fit was used to calculate the IC50 value. High Signal Control: No compound group (the same volume of DMSO substituted). Low Signal Control: Ketanserin group (non-isotopically labeled, 2× final concentration). Table 1: Results of 5-HT2A receptor isotope competition affinity assay, Ki Values

Chain of 5-HT2A receptor (P28223 whole entry): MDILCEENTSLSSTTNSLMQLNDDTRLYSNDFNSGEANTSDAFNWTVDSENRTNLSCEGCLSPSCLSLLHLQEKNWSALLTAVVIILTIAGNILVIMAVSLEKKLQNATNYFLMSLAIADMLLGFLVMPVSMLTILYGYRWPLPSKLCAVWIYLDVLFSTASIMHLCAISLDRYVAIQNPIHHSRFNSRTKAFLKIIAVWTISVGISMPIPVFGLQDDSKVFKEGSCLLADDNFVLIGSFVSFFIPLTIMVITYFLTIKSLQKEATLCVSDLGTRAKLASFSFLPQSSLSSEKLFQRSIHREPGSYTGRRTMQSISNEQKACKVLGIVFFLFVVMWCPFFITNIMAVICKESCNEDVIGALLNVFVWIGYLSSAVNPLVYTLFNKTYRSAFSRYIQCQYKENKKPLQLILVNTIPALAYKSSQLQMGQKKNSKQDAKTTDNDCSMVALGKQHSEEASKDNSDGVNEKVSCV

Question: With `COc1ccccc1CCCN1CCC(c2c[nH]c3cccc(F)c23)C1` (stereo not shown) [Compound 8] as the compound, how does the pKi read?
Answer: The pKi was greater than 7.00.

Question: How did the pKi turn out when `Cn1cc(CCCN2CCC(c3noc4cc(F)ccc34)C2)cn1` (stereo not shown) [Compound 68] was run?
Answer: Its pKi is greater than 7.00.

Question: How did the pKi turn out when `CC(C)c1nnc2n1CCC(CN1CCC(c3c[nH]c4ccccc34)C1)C2` (stereo not shown) [Compound 139, 7-((3-(1H-indol-3-yl)pyrrolidin-1-yl)methyl)-3-isopropyl-5,6,7,8-tetrahydro-[1,2,4]triazolo[4,3-a]pyridine] was run?
Answer: Its pKi is greater than 7.00.

Question: `CC(C)n1cnnc1CCCN1CCC(n2ccc3cc(F)ccc32)C1` (stereo not shown) [Compound 80] was tested. Which pKi did it give?
Answer: Its pKi is greater than 7.00.

Question: With `COc1ccccc1CCCN1CCC(c2n[nH]c3ccncc23)C1` (stereo not shown) [Compound 30] as the compound, how does the pKi read?
Answer: Its pKi is greater than 7.00.

Question: With `Cc1nnc(CCCN2CCC(c3c[nH]c4ccccc34)C2)n1C(C)C` (stereo not shown) [Compound 86, 3-(1-(3-(5-methyl-4-(propan-2-yl)-4H-1,2,4-triazol-3-yl)propyl)pyrrolidin-3-yl)-1H-indole] as the compound, how does the pKi read?
Answer: Its pKi is greater than 7.00.

Question: How did the pKi turn out when `Oc1cccc2[nH]cc([C@H]3CCN(CCCn4nccn4)C3)c12` [Compound 181, (R)-3-(1-(3-(2H-1,2,3-triazol-2-yl)propyl)pyrrolidin-3-yl)-1H-indol-4-ol] was run?
Answer: The pKi was greater than 7.00.

Question: How did the pKi turn out when `CC(C)c1nc(CCCN2CCC(c3c[nH]c4cccc(O)c34)C2)no1` (stereo not shown) [Compound 174, 3-(1-(3-(5-isopropyl-1,2,4-oxadiazol-3-yl)propyl)pyrrolidin-3-yl)-1H-indol-4-ol] was run?
Answer: Its pKi is greater than 7.00.

Question: `Cn1cc(CCCN2CCC(n3ccc4cc(F)ccc43)C2)cn1` (stereo not shown) [Compound 61] was tested. Which pKi did it give?
Answer: The pKi was greater than 7.00.

Question: `COc1ccccc1CCCN1CCC(c2c[nH]c3cccc(OC)c23)C1` (stereo not shown) [Compound 9] was tested. Which pKi did it give?
Answer: Its pKi is greater than 7.00.

Question: With `CC(C)n1c(CCCN2CCC(c3c[nH]c4cc(F)ccc34)C2)nnc1C(F)(F)F` (stereo not shown) [Compound 100] as the compound, how does the pKi read?
Answer: The pKi was greater than 7.00.

Question: How did the pKi turn out when `Cc1nn(CCCN2CC[C@H](c3c[nH]c4cccc(O)c34)C2)nc1C` [Compound 185, (R)-3-(1-(3-(4,5-dimethyl-2H-1,2,3-triazol-2-yl)propyl)pyrrolidin-3-yl)-1H-indol-4-ol] was run?
Answer: The pKi was greater than 7.00.

Question: `c1ccc2c([C@@H]3CCN(CCCn4nccn4)C3)c[nH]c2c1` [Compound 178, (S)-3-(1-(3-(2H-1,2,3-triazol-2-yl)propyl)pyrrolidin-3-yl)-1H-indole] was tested. Which pKi did it give?
Answer: The pKi was greater than 7.00.

Question: With `CC1CN(CCCc2nncn2C(C)C)CC1c1c[nH]c2cc(F)ccc12` (stereo not shown) [Compound 90, 6-fluoro-3-(4-methyl-1-(3-(4-(propan-2-yl)-4H-1,2,4-triazol-3-yl)propyl)pyrrolidin-3-yl)-1H-indole] as the compound, how does the pKi read?
Answer: Its pKi is greater than 7.00.

Question: `COc1cccc2nnc(CCN3CCC(c4c[nH]c5cc(F)ccc45)C3)n12` (stereo not shown) [Compound 147, 6-fluoro-3-(1-(2-(5-methoxy-(1,2,4)triazolo(4,3-a)pyridin-3-yl)ethyl)pyrrolidin-3-yl)-1H-indole] was tested. Which pKi did it give?
Answer: The pKi was greater than 7.00.

Question: `Cn1cc(CCCN2CCC(c3c[nH]c4ccccc34)C2)cn1` (stereo not shown) [Compound 57, 3-(1-(3-(1-methyl-1H-pyrazol-4-yl)propyl)pyrrolidin-3-yl)-1H-indole] was tested. Which pKi did it give?
Answer: Its pKi is greater than 7.00.

Question: `Oc1cccc2[nH]cc(C3CN(CCCc4cc(F)ccc4F)CCO3)c12` (stereo not shown) [Compound 40] was tested. Which pKi did it give?
Answer: The pKi was greater than 7.00.

Question: How did the pKi turn out when `COc1ccccc1CCN1CCC(c2c[nH]c3cccc(O)c23)C1` (stereo not shown) [Compound 1, 3-(1-(2-(2-methoxyphenyl)ethyl)pyrrolidin-3-yl)-1H-indol-4-ol] was run?
Answer: Its pKi is greater than 7.00.

Question: With `Fc1ccc2c(C3CCN(CCc4nnc5c(F)cccn45)C3)c[nH]c2c1` (stereo not shown) [Compound 149, 6-fluoro-3-(1-(2-(8-fluoro-(1,2,4)triazolo[4,3-a]pyridin-3-yl)ethyl)pyrrolidin-3-yl)-1H-indole] as the compound, how does the pKi read?
Answer: The pKi was greater than 7.00.

Question: How did the pKi turn out when `CC(CCc1nncn1C(C)C)N1CCC(c2c[nH]c3cc(F)ccc23)C1` (stereo not shown) [Compound 91] was run?
Answer: Its pKi is greater than 7.00.

Question: How did the pKi turn out when `COc1ccc(F)c2nnc(CCN3CC(c4c[nH]c5cc(F)ccc45)C3)n12` [Compound 148, 6-fluoro-3-(1-(2-(8-fluoro-5-methoxy-(1,2,4)triazolo(4,3-a)pyridin-3-yl)ethyl)azetidin-3-yl)-1H-indole] was run?
Answer: The pKi was greater than 7.00.

Question: How did the pKi turn out when `COc1ccccc1C1CCN(CCc2c[nH]c3cccc(O)c23)CC1` [Compound 10, 3-(2-(4-(2-methoxyphenyl)piperidin-1-yl)ethyl)-1H-indol-4-ol] was run?
Answer: The pKi was greater than 7.00.
